Source: PMC3302783, “Position of the Third Na^+ Site in the Aspartate Transporter GltPh and the Human Glutamate Transporter, EAAT1” (PLoS ONE, 2012)

Experiments:
EAAT1 = molecular target: T1, EAAT1 (Homo sapiens, UniProt P43003); test: Two-electrode voltage clamp of Xenopus laevis oocytes expressing wild type EAAT1; assay type: cell-based
T1 construct: expressed in transfected cells; host or cells: Xenopus laevis oocytes injected with cRNA
Description: (§1) All chemicals were obtained from Sigma unless otherwise stated. Stage V oocytes were harvested from Xenopus laevis as described previously.
(§2) NMDG^+ was used as a Na^+ substitute to maintain ionic strength of the buffers.
(§3) Substrate responses were fitted by least squares as a function of substrate concentration to I/Imax = [S]/([S]+K 0.5), where I is the current, Imax is the maximal current, K 0.5 is the concentration of substrate that generates half-maximal response, and [S] is the substrate concentration. Na^+ concentration responses were fit to the Hill equation I/Imax = [S]^n/([S]^n+(K 0.5)^n) where n is the Hill coefficient and all other terms are as described above. For ^3H-L-aspartate uptake by GltPh, initial rates were calculated from the linear portion of the curve and all data represent the mean ± s.e.m. of at least 3 experiments.

EAAT1 T130A = molecular target: T2, EAAT1 T130A (Homo sapiens, UniProt P43003, T130A); test: Two-electrode voltage clamp of Xenopus laevis oocytes expressing EAAT1 T130A; assay type: cell-based
T2 construct: expressed in transfected cells; host or cells: Xenopus laevis oocytes injected with cRNA
Description: as §1, §2, §3

EAAT1 T131A = molecular target: T3, EAAT1 T131A (Homo sapiens, UniProt P43003, T131A); test: Two-electrode voltage clamp of Xenopus laevis oocytes expressing EAAT1 T131A; assay type: cell-based
T3 construct: expressed in transfected cells; host or cells: Xenopus laevis oocytes injected with cRNA
Description: as §1, §2, §3

wild type GltPh = molecular target: T4, wild type GltPh (Pyrococcus horikoshii, UniProt O59010); test: ^3H-L-aspartate uptake in proteoliposomes, wild type GltPh; assay type: biochemical
T4 construct: histidine tag (cleaved yes); made in house
T4 sequence (O59010 1-425): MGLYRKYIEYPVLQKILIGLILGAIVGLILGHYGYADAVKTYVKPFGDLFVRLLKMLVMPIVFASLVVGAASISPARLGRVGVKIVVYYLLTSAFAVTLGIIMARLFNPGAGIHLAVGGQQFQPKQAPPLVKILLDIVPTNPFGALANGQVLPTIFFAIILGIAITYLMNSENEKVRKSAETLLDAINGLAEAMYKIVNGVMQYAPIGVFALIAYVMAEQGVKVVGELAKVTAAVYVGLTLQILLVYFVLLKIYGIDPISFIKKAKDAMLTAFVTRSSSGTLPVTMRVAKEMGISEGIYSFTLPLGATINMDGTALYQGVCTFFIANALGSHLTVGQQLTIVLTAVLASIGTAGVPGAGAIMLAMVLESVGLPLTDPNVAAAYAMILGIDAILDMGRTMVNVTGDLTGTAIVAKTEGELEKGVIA
Protocol: (§4) Pure protein was reconstituted into liposomes using a method modified from Gaillard et al., 1996 [37]. Escherichia coli polar lipids and 1-palmitoyl-2-oleoyl-sn-glycero-3-phosphocholine (Avanti Polar Lipids), at a ratio of 3∶1, were mixed, dried under nitrogen, and resuspended in internal buffer (100 mM KCl, 20 mM HEPES pH 7.5 or the appropriate internal buffer as indicated below). The lipid mixture was briefly sonicated using a cylindrical sonicator (Labatory Supplies Co.) and the lipid suspension was frozen in liquid nitrogen and thawed at 45°C several times. Liposomes were formed by extrusion through 400 nm polycarbonate membranes (Avanti Polar Lipids) and were treated with Triton X-100 at a 0.5∶1 (w/w) detergent to lipid ratio prior to the addition of protein at 0.25 µg protein/mg lipid. The protein/lipid mixture was left at room temperature for 30 minutes before detergent was removed using SM2 Biobeads (Biorad). The protein/lipid mixture was incubated, with gentle agitation, with three consecutive batches of the Biobeads (80 mg/ml). Proteoliposomes were concentrated by centrifugation at 150,000 g for 30 minutes in a Beckman Optima TLX centrifuge, resuspended at 100 mg lipid/mL and either used immediately or flash frozen in liquid nitrogen and stored at −80°C.
(§5) ^3H-L-aspartate transport by wild type GltPh and mutant GltPh transporters was assayed using a protocol modified from Gaillard et al., 1996 [37]. Proteoliposomes were loaded with internal buffer (100 mM KCl, 20 mM HEPES pH 7.5) by several freeze/thaw cycles followed by extrusion as described above. The uptake reaction was initiated by diluting the proteoliposomes (100 mg lipid/mL) 133 fold into reaction buffer pre-warmed to 30°C. The reaction buffer contained: 100 mM NaCl, 20 mM HEPES pH 7.5, 1 µM valinomycin and the indicated concentrations of ^3H-L-aspartate. […] The filters were washed once with 2 mL of ice cold quench buffer and assayed for radioactivity using a Trilux beta counter (Perkin Elmer). The Na^+ dependence of ^3H-L-aspartate transport was measured by varying extraliposomal Na^+ from 0.1 to 300 mM Na^+. […] Background levels of uptake were measured by diluting proteoliposomes into internal buffer (100 mM KCl, 20 mM HEPES pH 7.5) containing 1 µM valinomycin and the indicated concentrations of ^3H-L-aspartate.
(§6) Substrate responses were fitted by least squares as a function of substrate concentration to I/Imax = [S]/([S]+K 0.5), where I is the current, Imax is the maximal current, K 0.5 is the concentration of substrate that generates half-maximal response, and [S] is the substrate concentration. […] For ^3H-L-aspartate uptake by GltPh, initial rates were calculated from the linear portion of the curve and all data represent the mean ± s.e.m. of at least 3 experiments.

GltPh T92A [1] = molecular target: T5, GltPh T92A (Pyrococcus horikoshii, UniProt O59010, T92A); test: ^3H-L-aspartate uptake in proteoliposomes, GltPh T92A; assay type: biochemical
T5 construct: histidine tag (cleaved yes); made in house
Protocol: as §4, §5, §6

GltPh S93A [2] = molecular target: T6, GltPh S93A (Pyrococcus horikoshii, UniProt O59010, S93A); test: ^3H-L-aspartate uptake in proteoliposomes, GltPh S93A; assay type: biochemical
T6 construct: histidine tag (cleaved yes); made in house
Protocol: as §4, §5, §6

GltPh T92A [3] = molecular target: T5, GltPh T92A; test: Binding free energy of Na^+ ions by thermodynamic integration (MD), GltPh T92A; conditions: GltPh T92A versus GltPh; from TI calculations
Protocol: (§7) The simulation systems are prepared using the software VMD [28]. The crystal structure of the GltPh trimer is embedded in a 1-palmitoyl-2-oleoyl-phosphatidylethanolamine (POPE) phospholipid bilayer and solvated in a box of water molecules with physiological concentration of NaCl. The final system consists of the trimer, 239 lipid molecules, 15688 water molecules and 35 Na^+ and 35 Cl^− ions. GltPh has a net charge of +6e, so to keep the system neutral 6 Cl^− ions are added in the apo system (more Cl^− ions are added when the bound Na^+ ions are included to preserve neutrality). […]
(§8) The binding free energies of Na^+ ions are calculated using the expression, ΔGb = ΔGint+ΔGtr , where the first term gives the free energy difference for the interactions of the ion in the binding site and bulk (i.e. translocation energy) and the second term measures the free energy loss due to reduction in translational entropy upon binding. […] The interaction energy is calculated using both the free energy perturbation (FEP) and the thermodynamic integration (TI) methods, [35]. […] Otherwise the binding free energy of the ion is determined from the average of the forward and backward calculations. […]

GltPh S93A [4] = molecular target: T6, GltPh S93A; test: Binding free energy of Na^+ ions by thermodynamic integration (MD), GltPh S93A; conditions: GltPh S93A versus GltPh; from TI calculations
Protocol: as §7, §8

GltPh = tested on: GltPh; parameters: method as in PMID 17230192, PMID 19380583; conditions: initial functional studies of GltPh; ref [9], [11]; cited from earlier work
GltPh N310A = molecular target: T7, GltPh N310A (Pyrococcus horikoshii, UniProt O59010, N310A); test: ^3H-L-aspartate uptake in proteoliposomes, GltPh N310A; assay type: biochemical; conditions: 100 nM ^3H-L-aspartate, 100 mM NaCl
T7 construct: histidine tag (cleaved yes); made in house
Protocol: (§9) Pure protein was reconstituted into liposomes using a method modified from Gaillard et al., 1996 [37]. Escherichia coli polar lipids and 1-palmitoyl-2-oleoyl-sn-glycero-3-phosphocholine (Avanti Polar Lipids), at a ratio of 3∶1, were mixed, dried under nitrogen, and resuspended in internal buffer (100 mM KCl, 20 mM HEPES pH 7.5 or the appropriate internal buffer as indicated below). The lipid mixture was briefly sonicated using a cylindrical sonicator (Labatory Supplies Co.) and the lipid suspension was frozen in liquid nitrogen and thawed at 45°C several times. […]
(§10) ^3H-L-aspartate transport by wild type GltPh and mutant GltPh transporters was assayed using a protocol modified from Gaillard et al., 1996 [37]. […] The filters were washed once with 2 mL of ice cold quench buffer and assayed for radioactivity using a Trilux beta counter (Perkin Elmer). The Na^+ dependence of ^3H-L-aspartate transport was measured by varying extraliposomal Na^+ from 0.1 to 300 mM Na^+. […] Background levels of uptake were measured by diluting proteoliposomes into internal buffer (100 mM KCl, 20 mM HEPES pH 7.5) containing 1 µM valinomycin and the indicated concentrations of ^3H-L-aspartate. […]

GltPh D312A = molecular target: T8, GltPh D312A (Pyrococcus horikoshii, UniProt O59010, D312A); test: ^3H-L-aspartate uptake in proteoliposomes, GltPh D312A; assay type: biochemical; conditions: 100 nM ^3H-L-aspartate, 100 mM NaCl
T8 construct: histidine tag (cleaved yes); made in house
Protocol: as §9, §10

[5] = 100 µM L-glutamate, oocytes clamped at −60 mV
[6] = 100 nM ^3H-L-aspartate, Na^+ 0.1 to 300 mM
[7] = 100 mM Na^+, saturating substrate concentrations
[8] = ^3H-L-aspartate concentration-dependent transport, 100 mM NaCl

T3 sequence (P43003 whole entry T131A): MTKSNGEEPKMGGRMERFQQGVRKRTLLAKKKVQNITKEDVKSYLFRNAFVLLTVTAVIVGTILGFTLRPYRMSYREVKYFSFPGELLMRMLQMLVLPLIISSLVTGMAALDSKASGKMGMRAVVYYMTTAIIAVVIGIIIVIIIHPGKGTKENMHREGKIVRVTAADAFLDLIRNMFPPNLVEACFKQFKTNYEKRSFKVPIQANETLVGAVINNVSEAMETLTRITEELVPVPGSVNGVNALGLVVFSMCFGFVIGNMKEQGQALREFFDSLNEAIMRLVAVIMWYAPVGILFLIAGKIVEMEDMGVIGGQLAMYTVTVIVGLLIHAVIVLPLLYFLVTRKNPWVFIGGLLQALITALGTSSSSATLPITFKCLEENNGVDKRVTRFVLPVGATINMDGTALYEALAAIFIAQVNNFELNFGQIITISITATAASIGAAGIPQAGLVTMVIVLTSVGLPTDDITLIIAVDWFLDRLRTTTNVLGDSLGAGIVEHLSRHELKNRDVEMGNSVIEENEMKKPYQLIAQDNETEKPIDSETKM
T1 sequence (P43003 whole entry): as the sequence (P43003 whole entry T131A) above, with A131T counted along it
T2 sequence (P43003 whole entry T130A): as the sequence (P43003 whole entry T131A) above, with T130A, A131T counted along it
T6 sequence (O59010 whole entry S93A): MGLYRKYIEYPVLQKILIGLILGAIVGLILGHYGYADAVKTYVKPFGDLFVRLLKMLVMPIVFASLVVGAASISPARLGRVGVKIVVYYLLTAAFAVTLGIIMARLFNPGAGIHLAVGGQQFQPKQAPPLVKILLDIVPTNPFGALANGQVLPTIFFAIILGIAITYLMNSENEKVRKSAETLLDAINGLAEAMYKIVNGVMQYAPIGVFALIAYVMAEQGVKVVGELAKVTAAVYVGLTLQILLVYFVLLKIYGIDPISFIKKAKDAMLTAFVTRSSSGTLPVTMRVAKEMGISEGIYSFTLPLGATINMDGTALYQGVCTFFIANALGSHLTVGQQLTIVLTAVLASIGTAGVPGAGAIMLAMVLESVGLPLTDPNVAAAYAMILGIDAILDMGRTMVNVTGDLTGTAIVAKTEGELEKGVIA
T5 sequence (O59010 whole entry T92A): as the sequence (O59010 whole entry S93A) above, with T92A, A93S counted along it
T8 sequence (O59010 whole entry D312A): as the sequence (O59010 whole entry S93A) above, with A93S, D312A counted along it
T7 sequence (O59010 whole entry N310A): as the sequence (O59010 whole entry S93A) above, with A93S, N310A counted along it

Compound: N[C@@H](CCC(=O)O)C(=O)O [L-glutamate]
- current elicited by L-glutamate (EAAT1; [5]): 395±20 nA
- K 0.5 for L-glutamate transport (EAAT1; oocytes clamped at −60 mV): 15 ± 1 µM
- current elicited by L-glutamate (EAAT1 T130A; [5]): 21±2 nA
- K 0.5 for L-glutamate transport (EAAT1 T130A; oocytes clamped at −60 mV): 87 ± 3 µM
- current elicited by L-glutamate (EAAT1 T131A; [5]): 25±2 nA
- K 0.5 for L-glutamate transport (EAAT1 T131A; oocytes clamped at −60 mV): 124 ± 11 µM

Compound: [Na+] [Na^+]
- Hill coefficient of Na^+ dependence of aspartate transport (wild type GltPh; 100 nM ^3H-L-aspartate): 2.3±0.5
- K 0.5 for Na^+ dependence of aspartate transport (wild type GltPh; [6]): 3.9 ± 0.4 mM
- Hill coefficient of Na^+ dependence of aspartate transport (GltPh T92A [1]; 100 nM ^3H-L-aspartate): 2.1±0.2
- K 0.5 for Na^+ dependence of aspartate transport (GltPh T92A [1]; [6]): 19 ± 1 mM
- Hill coefficient of Na^+ dependence of aspartate transport (GltPh S93A [2]; 500 nM ^3H-L-aspartate): 1.9±0.2
- K 0.5 for Na^+ dependence of aspartate transport (GltPh S93A [2]; 500 nM ^3H-L-aspartate, Na^+ 0.1 to 300 mM): 44 ± 2 mM
- Hill coefficient of Na^+ dependence of L-glutamate transport (EAAT1; 300 µM L-glutamate): 2.8±0.4
- K 0.5 for Na^+ dependence of L-glutamate transport (EAAT1; 300 µM L-glutamate, Na^+ 1 to 150 mM): 28 ± 4 mM
- Na^+ dependence of L-glutamate transport: saturation at highest Na^+ concentration (EAAT1 T130A; 1 mM L-glutamate, 150 mM Na^+): not saturating
- Na^+ dependence of L-glutamate transport: saturation at highest Na^+ concentration (EAAT1 T131A; 1 mM L-glutamate, 150 mM Na^+): not saturating
- reduction of the binding free energy of Na3 by the mutation (GltPh T92A [3]): 7.5 kcal/mol
- reduction of the binding free energy of Na3 by the mutation (GltPh S93A [4]): 5.9 kcal/mol
- Hill coefficient (Na^+ ions co-transported with substrate) (GltPh): > 2

Compound: N[C@@H](CC(=O)O)C(=O)O [aspartate]
- maximal velocity of ^3H-L-aspartate transport (wild type GltPh; [7]): 7.5±0.5 nmol/mg protein/min
- K 0.5 for aspartate transport (wild type GltPh; [8]): 100 ± 10 nM
- maximal velocity of ^3H-L-aspartate transport (GltPh T92A [1]; [7]): 42±1 nmol/mg protein/min
- K 0.5 for aspartate transport (GltPh T92A [1]; [8]): 61 ± 10 nM
- maximal velocity of ^3H-L-aspartate transport (GltPh S93A [2]; [7]): 58±3 nmol/mg protein/min
- K 0.5 for aspartate transport (GltPh S93A [2]; [8]): 370 ± 60 nM
- ^3H-L-aspartate uptake versus background (GltPh N310A): did not exhibit ^3H-L-aspartate uptake over background levels
- ^3H-L-aspartate uptake versus background (GltPh D312A): did not exhibit ^3H-L-aspartate uptake over background levels
